Reference: US6706663B2, “Herbicidal 3-heterocyclic substituted benzisothiazole and benzisoxazole compounds” (Wyeth, priority 2000, dated 2004)

How the values were obtained:
[1] = system: ABUTH (Abutilon theophrasti); assay: Postemergence herbicidal evaluation; format: in vivo, Medic.; details: postemergence
Procedure, shortened: (§1)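 Seedlings grown about two weeks in flats, sprayed, then kept under standard greenhouse care. Rated visually 4–5 weeks after treatment on a 0–9 scale (stand, vigour, malformation, size, chlorosis, overall appearance) relative to untreated control; repeat tests averaged.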

[2] = system: AMBEL (Ambrosia artemisifolia); assay: Postemergence herbicidal evaluation; format: in vivo, L.; details: postemergence
Procedure, shortened: as §1

[3] = system: CASOB (Cassia obtusifolia); assay: Postemergence herbicidal evaluation; format: in vivo, L.; details: postemergence
Procedure, shortened: as §1

[4] = system: CHEAL (Chenopodium album); assay: Postemergence herbicidal evaluation; format: in vivo, L.; details: postemergence
Procedure, shortened: as §1

[5] = system: GALAP (Galium aparine); assay: Postemergence herbicidal evaluation; format: in vivo; details: postemergence
Procedure, shortened: as §1

[6] = system: IPOHE (Ipomoea hederacea); assay: Postemergence herbicidal evaluation; format: in vivo, (L.) Jacq.; details: postemergence
Procedure, shortened: as §1

[7] = system: ECHCG (Echinochloa crus-galli); assay: Postemergence herbicidal evaluation; format: in vivo, (L.) Beau; details: postemergence
Procedure, shortened: as §1

[8] = system: GLXMAW (Soybean, Williams); assay: Postemergence herbicidal evaluation; format: in vivo, Glycine max, (L.) Merr. cv Williams; details: postemergence
Procedure, shortened: as §1

[9] = system: ORYSAT (Rice, Tebonnet); assay: Postemergence herbicidal evaluation; format: in vivo, Oryza sativa, (L.) Tebonnet; details: postemergence
Procedure, shortened: as §1

[10] = system: TRZAWR (Wheat, Winter, cv Riband); assay: Postemergence herbicidal evaluation; format: in vivo, Triticum aestivum; details: postemergence
Procedure, shortened: as §1

[11] = system: ZEAMX (Corn, Field); assay: Postemergence herbicidal evaluation; format: in vivo, Zea mays, L.; details: postemergence
Procedure, shortened: as §1

[12] = system: ABUTH (Abutilon theophrasti); assay: Preemergence herbicidal evaluation; format: in vivo, Medic.; details: preemergence, rated 4-5 weeks after treatment
[13] = system: AMBEL (Ambrosia artemisifolia); assay: Preemergence herbicidal evaluation; format: in vivo, L.; details: preemergence, rated 4-5 weeks after treatment
Procedure, shortened: (§2)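 Applied before emergence as an aqueous acetone spray over seeded soil. Read-out: 0–9 visual rating covering plant stand, vigor, size, chlorosis, malformation and overall appearance compared with control, taken 4–5 weeks after spraying.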

[14] = system: GALAP (Galium aparine); assay: Preemergence herbicidal evaluation; format: in vivo; details: preemergence, rated 4-5 weeks after treatment
Procedure, shortened: as §2

[15] = system: IPOHE (Ipomoea hederacea); assay: Preemergence herbicidal evaluation; format: in vivo, (L.) Jacq.; details: preemergence, rated 4-5 weeks after treatment
[16] = system: ECHCG (Echinochloa crus-galli); assay: Preemergence herbicidal evaluation; format: in vivo, (L.) Beau; details: preemergence, rated 4-5 weeks after treatment
Procedure, shortened: as §2

[17] = system: GLXMA (Soybean); assay: Preemergence herbicidal evaluation; format: in vivo, Glycine max, (L.) Merr.; details: preemergence, rated 4-5 weeks after treatment
[18] = system: ZEAMX (Corn, Field); assay: Preemergence herbicidal evaluation; format: in vivo, Zea mays, L.; details: preemergence, rated 4-5 weeks after treatment
[19] = system: ECHORC (Echinochloa oryzoides); assay: Flooded paddy, preemergence weed control; format: in vivo, Echinochloa oryzoides (Ard.) Fritsch.; details: rated 3-4 weeks after treatment, 0-9 rating scale
Procedure, shortened: (§3)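 Under paddy conditions, seeds or vegetative propagules go into the top 0.5 cm of silt loam; the soil is then flooded to 1.5–3 cm and kept so. Treated pots stay in a greenhouse; response is rated 0-9 visually versus control.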

[20] = system: CYPIR (Cyperus iria); assay: Flooded paddy, preemergence weed control; format: in vivo; details: rated 3-4 weeks after treatment, 0-9 rating scale
Procedure, shortened: as §3

[21] = system: MOOVA (Monochoria vaginalis); assay: Flooded paddy, preemergence weed control; format: in vivo, Presl.; details: rated 3-4 weeks after treatment, 0-9 rating scale
Procedure, shortened: as §3

[22] = system: SAGPY (Sagittaria pygmaea); assay: Flooded paddy, preemergence weed control; format: in vivo, L.; details: rated 3-4 weeks after treatment, 0-9 rating scale
Procedure, shortened: as §3

[23] = system: ORYSAT (Rice, Tebonnet); assay: Flooded paddy, post-transplant rice tolerance; format: in vivo, Oryza sativa, (L.) Tebonnet; details: in vivo
Procedure, shortened: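 Seedlings aged ten days are transplanted in pairs into undrained pots of silt loam, which are then flooded to a depth of 1.5 to 3 cm. After herbicide application the pots are kept in a greenhouse with the flood maintained. Plants are rated 0-9 by visual comparison with controls.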

1-methyl-3-[3-(4-oxo-delta-2-1,2,5-thiadiazolin-3-yl)-1,2-benzisothiazol-5-yl]-6-(trifluoromethyl)uracil S′,S′-dioxide [Compound 92]
ABUTH herbicidal rating ([1]; rate 0.0320 kg/ha): 6.0 | ABUTH herbicidal rating ([1]; rate 0.0620 kg/ha): 7.0 | ABUTH herbicidal rating ([1]; rate 0.1250 kg/ha): 9.0 | AMBEL herbicidal rating ([2]; rate 0.0320 kg/ha): 3.0 | AMBEL herbicidal rating ([2]; rate 0.0620 kg/ha): 5.0 | AMBEL herbicidal rating ([2]; rate 0.1250 kg/ha): 6.0 | CASOB herbicidal rating ([3]; rate 0.0320 kg/ha): 4.0 | CASOB herbicidal rating ([3]; rate 0.0620 kg/ha): 5.0 | CASOB herbicidal rating ([3]; rate 0.1250 kg/ha): 5.0 | CHEAL herbicidal rating ([4]; rate 0.0320 kg/ha): 3.0 | CHEAL herbicidal rating ([4]; rate 0.0620 kg/ha): 6.0 | CHEAL herbicidal rating ([4]; rate 0.1250 kg/ha): 6.0 | GALAP herbicidal rating ([5]; rate 0.0320 kg/ha): 2.0 | GALAP herbicidal rating ([5]; rate 0.0620 kg/ha): 3.0 | GALAP herbicidal rating ([5]; rate 0.1250 kg/ha): 4.0 | IPOHE herbicidal rating ([6]; rate 0.0320 kg/ha): 6.0 | IPOHE herbicidal rating ([6]; rate 0.0620 kg/ha): 8.0 | IPOHE herbicidal rating ([6]; rate 0.1250 kg/ha): 8.0 | ECHCG herbicidal rating ([7]; rate 0.0320 kg/ha): 2.0 | ECHCG herbicidal rating ([7]; rate 0.0620 kg/ha): 3.0 | ECHCG herbicidal rating ([7]; rate 0.1250 kg/ha): 4.0 | GLXMAW herbicidal rating ([8]; rate 0.0320 kg/ha): 5.0 | GLXMAW herbicidal rating ([8]; rate 0.0620 kg/ha): 5.0 | GLXMAW herbicidal rating ([8]; rate 0.1250 kg/ha): 5.5 | ORYSAT herbicidal rating ([9]; rate 0.0320 kg/ha): 1.0 | ORYSAT herbicidal rating ([9]; rate 0.0620 kg/ha): 1.0 | ORYSAT herbicidal rating ([9]; rate 0.1250 kg/ha): 1.0 | TRZAWR herbicidal rating ([10]; rate 0.0320 kg/ha): 1.0 | TRZAWR herbicidal rating ([10]; rate 0.0620 kg/ha): 1.5 | TRZAWR herbicidal rating ([10]; rate 0.1250 kg/ha): 1.5 | ZEAMX herbicidal rating ([11]; rate 0.0320 kg/ha): 2.0 | ZEAMX herbicidal rating ([11]; rate 0.0620 kg/ha): 2.5 | ZEAMX herbicidal rating ([11]; rate 0.1250 kg/ha): 3.0 | Preemergence herbicidal rating ABUTH ([12]; rate 0.0620 kg/ha): 0.0 | Preemergence herbicidal rating ABUTH ([12]; rate 0.1250 kg/ha): 0.0 | Preemergence herbicidal rating ABUTH ([12]; rate 0.2500 kg/ha): 3.0 | Preemergence herbicidal rating AMBEL ([13]; rate 0.0620 kg/ha): 0.0 | Preemergence herbicidal rating AMBEL ([13]; rate 0.1250 kg/ha): 0.0 | Preemergence herbicidal rating AMBEL ([13]; rate 0.2500 kg/ha): 0.0 | Preemergence herbicidal rating GALAP ([14]; rate 0.0620 kg/ha): 0.0 | Preemergence herbicidal rating GALAP ([14]; rate 0.1250 kg/ha): 0.0 | Preemergence herbicidal rating GALAP ([14]; rate 0.2500 kg/ha): 2.0 | Preemergence herbicidal rating IPOHE ([15]; rate 0.0620 kg/ha): 0.0 | Preemergence herbicidal rating IPOHE ([15]; rate 0.1250 kg/ha): 0.0 | Preemergence herbicidal rating IPOHE ([15]; rate 0.2500 kg/ha): 4.0 | Preemergence herbicidal rating ECHCG ([16]; rate 0.0620 kg/ha): 0.0 | Preemergence herbicidal rating ECHCG ([16]; rate 0.1250 kg/ha): 0.0 | Preemergence herbicidal rating ECHCG ([16]; rate 0.2500 kg/ha): 0.0 | Preemergence herbicidal rating GLXMA ([17]; rate 0.0620 kg/ha): 0.0 | Preemergence herbicidal rating GLXMA ([17]; rate 0.1250 kg/ha): 0.0 | Preemergence herbicidal rating GLXMA ([17]; rate 0.2500 kg/ha): 0.0 | Preemergence herbicidal rating ZEAMX ([18]; rate 0.0620 kg/ha): 0.0 | Preemergence herbicidal rating ZEAMX ([18]; rate 0.1250 kg/ha): 0.0 | Preemergence herbicidal rating ZEAMX ([18]; rate 0.2500 kg/ha): 0.0 | ECHORC herbicidal rating ([19]; rate 0.0320 kg/ha): 0.0 | ECHORC herbicidal rating ([19]; rate 0.1250 kg/ha): 0.0 | CYPIR herbicidal rating ([20]; rate 0.0320 kg/ha): 0.0 | CYPIR herbicidal rating ([20]; rate 0.1250 kg/ha): 8.0 | MOOVA herbicidal rating ([21]; rate 0.0320 kg/ha): 0.0 | MOOVA herbicidal rating ([21]; rate 0.1250 kg/ha): 8.0 | SAGPY herbicidal rating ([22]; rate 0.0320 kg/ha): 0.0 | SAGPY herbicidal rating ([22]; rate 0.1250 kg/ha): 0.0 | ORYSAT herbicidal rating (transplanted rice tolerance) [23]: 0.0
